Values quoted from earlier work as cited in patent US20080119444A1, “Methods and compositions for the treatment of cancer” (priority 2006, published 2008).

What was measured:
[1] = target: T1, HMG-CoA reductase (Homo sapiens, UniProt P04035)
T1 sequence (P04035 1-888): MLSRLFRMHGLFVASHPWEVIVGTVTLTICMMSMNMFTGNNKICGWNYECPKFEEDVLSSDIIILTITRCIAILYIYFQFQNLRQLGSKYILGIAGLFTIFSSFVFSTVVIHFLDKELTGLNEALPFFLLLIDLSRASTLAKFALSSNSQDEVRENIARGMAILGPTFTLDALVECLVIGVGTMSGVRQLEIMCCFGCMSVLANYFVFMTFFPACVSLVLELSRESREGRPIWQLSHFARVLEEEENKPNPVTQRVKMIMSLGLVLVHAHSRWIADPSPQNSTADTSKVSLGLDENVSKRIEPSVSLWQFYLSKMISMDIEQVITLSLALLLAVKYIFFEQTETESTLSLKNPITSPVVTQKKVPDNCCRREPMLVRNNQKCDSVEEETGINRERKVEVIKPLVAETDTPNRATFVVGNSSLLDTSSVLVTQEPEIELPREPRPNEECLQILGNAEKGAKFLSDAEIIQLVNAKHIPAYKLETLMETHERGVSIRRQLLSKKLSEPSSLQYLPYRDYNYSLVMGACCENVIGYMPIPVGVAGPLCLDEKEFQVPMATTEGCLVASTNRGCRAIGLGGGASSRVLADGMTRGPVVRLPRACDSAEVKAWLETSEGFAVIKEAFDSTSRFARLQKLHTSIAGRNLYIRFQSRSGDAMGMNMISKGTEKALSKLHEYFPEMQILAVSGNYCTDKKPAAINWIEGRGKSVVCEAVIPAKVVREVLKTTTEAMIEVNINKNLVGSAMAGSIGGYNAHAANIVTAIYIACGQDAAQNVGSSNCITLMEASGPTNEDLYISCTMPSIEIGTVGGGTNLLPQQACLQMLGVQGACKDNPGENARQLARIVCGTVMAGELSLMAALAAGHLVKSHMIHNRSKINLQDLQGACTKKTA

[2] = test system: early breast cancer; settings: for contralateral breast cancers (events) / disease-free survival events / distant metastases (events) / time-to-recurrence events: median follow-up 68 months
[3] = ATAC trial
[4] = test system: breast cancer; settings: for disease-free survival: after 2 to 3 years of tamoxifen: switch to exemestane or continue tamoxifen, total 5 years, median follow-up 30.6 months
[5] = exemestane vs tamoxifen
[6] = test system: endocrine-responsive breast cancer; settings: adjuvant letrozole compared with tamoxifen, postmenopausal women
[7] = in vivo
[8] = test system: ER+ breast cancer
[9] = tamoxifen users
[10] = sequence tamoxifen then exemestane vs continued tamoxifen
[11] = 5 years of tamoxifen treatment, women with ER+ disease
[12] = at 15 years, ER+ (or ER unknown) tumors, 5 years of tamoxifen

Row | Compound | potency relative to another statin [1] | contralateral breast cancers (events) [2] | disease-free survival events [2] | distant metastases (events) [2] | time-to-recurrence events [2] | withdrawal rate for drug-related adverse events [3] | disease-free survival [4] | fracture rate compared to tamoxifen | other results
1 | CC(C)c1c(C(=O)Nc2ccccc2)c(-c2ccccc2)c(-c2ccc(F)cc2)n1CC[C@@H](O)C[C@@H](O)CC(=O)O [Atorvastatin, atorvastatin] | approximately twice as potent as simvastatin |  |  |  |  |  |  |  | 
2 | CC(C)(C#N)c1cc(Cn2cncn2)cc(C(C)(C)C#N)c1 [anastrozole] |  | 35 | 575 events | 324 | 402 | 5.1% |  |  | reduction of contralateral breast cancers ([2]; anastrozole vs tamoxifen): 42%
3 | C=C1C[C@@H]2[C@H](CC[C@]3(C)C(=O)CC[C@@H]23)[C@@]2(C)C=CC(=O)C=C12 [exemestane] |  |  |  |  |  |  | 91.5% | non-significant increase in fracture rate | absolute difference in disease-free survival [4, 10]: 4.7%; disease-free survival HR [4, 10]: 0.68; diarrhea [5]: 4.3%; bone loss during treatment (compared to placebo): minor bone loss
4 | N#Cc1ccc(C(c2ccc(C#N)cc2)n2cncn2)cc1 [letrozole] |  |  |  |  |  |  |  | significantly increase fracture rate | risk of recurrent disease [6]: reduced the risk of recurrent disease; grade 3, 4, or 5 cardiac events [7]: 2.1%; patients with hypercholesterolemia reported at least once during treatment [7]: 43.6%; fracture rate compared to placebo (compared to placebo): non-significant increase in fracture rate
5 | CC(C)c1nc(N(C)S(C)(=O)=O)nc(-c2ccc(F)cc2)c1/C=C/[C@@H](O)C[C@@H](O)CC(=O)O [rosuvastatin] | more potent than atorvastatin |  |  |  |  |  |  |  | 
6 | CC/C(=C(\c1ccccc1)c1ccc(OCCN(C)C)cc1)c1ccccc1 [tamoxifen] |  | 59 | 651 events | 375 | 498 | 7.2% | 86.8% |  | reduction of annual rate of mortality [8, 11]: 34%; reduction of annual rate of recurrence [8, 11]: 41%; absolute reduction in mortality [8, 12]: 9.2%; absolute reduction in recurrence [8, 12]: 11.8%; 10-year risk of mortality from endometrial cancer [9]: 2 per 1000
